The source of these data is patent publication US20140322161A1, “ANTI-IL-6 VACCINE COMPOSITION” (PEPTINOV SAS, priority 2011, published 2014).

For one assay, the target named is hIL-6 (Homo sapiens, UniProt P05231). The assay can be described thus: Human IL-6 neutralization test on HEK293 cells (hIL-6 receptor, SEAP reporter) with purified IgGs from immunized rabbits. The class given is cell-based. The settings on record: purified IgGs from rabbits immunized with 100 μg of the peptide. Here is the method:
New Zealand rabbits free from specific pathogenic organisms (n=1 per peptide) were immunized with 100 μg of peptides hP1, hP2, hP3, hP4 and hP6 derived from human IL-6 by five immunizations with CFA/IFA on D0, D14, D28, D56 and J70. The neutralizing ability of the purified IgGs, derived from the serum of each rabbit, was tested in a human IL-6 neutralization test. This test is carried out on HEK293 cells (Human Embryonic Kidney cells) transfected with the gene encoding the human IL-6 receptor and the secreted embryonic alkaline phosphatase (SEAP) reporter gene (Supplier: Invivogen). The latter is then secreted in a dose-dependent manner in response to the human IL-6.
Plating (D0): seed a flat-bottom 96-well plate, treated for cell culture with 50,000 cells per well in 100 μL of neutralization medium. (DMEM 4.5 g/L glucose, 10% v/v FCS, 2 mM L-Glutamine, 100 U/mL Penicillin/Streptomycin, 100 μg/mL of Normocin).
In parallel a so-called “pre-incubation” plate is prepared with the desired concentration of human IL-6, rabbit antibodies and commercial anti-hIL-6 antibodies used as a positive control, all in a final volume of 200 μL of neutralization medium.
The pre-incubation plate is left at 37° C. for 2 hours. 100 μL per well is then transferred to the corresponding wells of the plate containing the cells, then the latter is incubated with 5% CO2 at 37° C. for 24 hours.
Development (D1): Fill a flat-bottom 96-well plate with 180 μL per well of QUANTI-Blue (InVivoGen, CA, USA). Add 20 μL of supernatant from the plate treated with IL-6. Incubate with 5% CO2 at 37° C. for 3 hours. Determine the quantity of secreted alkaline phosphatase using a spectrophotometer set at 620 nm.

The target of another assay is T1, murine IL-6 (Mus musculus, UniProt P08505).
T1 sequence (P08505 25-211): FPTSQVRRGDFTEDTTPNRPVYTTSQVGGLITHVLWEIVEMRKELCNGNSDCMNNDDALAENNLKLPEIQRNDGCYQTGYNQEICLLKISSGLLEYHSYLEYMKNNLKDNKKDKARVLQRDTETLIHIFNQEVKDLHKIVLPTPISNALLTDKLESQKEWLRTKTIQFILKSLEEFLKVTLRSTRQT
The assay can be described thus: Murine IL-6 neutralization test on murine B9 hybridomas with purified IgGs from immunized rabbits. Format: cell-based. The note with it: purified IgGs from rabbits immunized with the peptide; B9 hybridoma proliferation, XTT. On the procedure: The neutralizing ability of purified IgGs based on serum from rabbits immunized with the peptides mP1, mP2, mP3, mP4, mP5 and mP6 respectively, was tested in a murine IL-6 neutralization test. This test is based on the fact that murine B9 hybridomas proliferate in a dose-dependent manner in response to murine IL-6 (Brakenhoff et al. (1987) J. Immunol. 139:4116-21).
Plating (D0): seed a flat-bottom 96-well plate, treated for cell culture with 5000 cells per well in 50 μL of neutralization medium. (RPMI 1640 without phenol red, 5% v/v Foetal Calf Serum (FCS), 2 mM L-Glutamine, 100 U/mL Penicillin/Streptomycin, […] of β-Mercaptoethanol)
In parallel a so-called “pre-incubation” plate is produced with the desired concentration of murine IL-6, samples and commercial anti-mIL-6 antibodies used as positive control, all in a final volume of 100 μL of neutralization medium.
The pre-incubation plate is left at 37° C. for 2 hours. 50 μL per well is then transferred to the corresponding wells of the plate containing the cells, then the latter is incubated with 5% CO2 at 37° C. for 96 hours.
Development (D4): Add 50 μL of a solution of XTT (for 2,3-bis-(2-methoxy-4-nitro-5-sulfophenyl)-2H-tetrazolium-5-carboxanilide)—0.5% electron coupling reagent to each well. Leave to incubate at 37° C. for 7 hours. Reading of the optical density on a spectrophotometer set at 450 nm.
A general note: Formazan colour is commonly taken as a measure of viable cells.

The test system of another assay is C57BL/6 mice. The assay can be described thus: Murine model of chronic colitis induced by DSS after vaccination. The class given is in vivo. The settings on record: for histological colitis score: D67 colon distal biopsies, compared with control mice treated with PBS or KLH alone, FIG. 3; for disease activity index (DAI) / reduction of the length of the colon: DSS-treated C57BL/6 mice; for disease activity index (DAI): 100 μg peptide coupled with KLH, compared with the control groups, FIG. 2; for reduction of the length of the colon: compared with control mice, FIG. 4. The source says: Chronic colitis induced by Dextran Sodium Sulfate (DSS) is a well-known model of chronic inflammatory disease reproducing the main characteristics of the human diseases (Alex et al. (2009) Inflamm. Bowel Dis. 15:341-352).
Briefly, groups of 6 C57BL/6 mice (Charles River Laboratories, L'Arbresle, France) were formed. The mice were immunized 4 times (once with CFA and three times with IFA) every 15 days with different vaccine preparations. The mice were respectively immunized with PBS (DSS/PBS group), 50 μg per mouse of KLH (DSS/KLH group), and 100 μg per mouse of peptide mP1, mP2, mP3, mP4, mP5 and mP6 coupled with KLH (DSS/mIL-6 peptide group). A control H2O group was also included. Four days after the first booster, colitis was induced by absorption of Dextran Sodium Sulfate (DSS) in water (2%) over 7 days followed by 7 days of water. Three DSS/water cycles were thus carried out, after which the mice received water until the end of the protocol. The clinical signs of the disease appear approximately on the fifth day after the start of treatment with DSS (D26 of the protocol). The development of the disease is measured from the start of the first DSS cycle up to the end of the protocol by a disease activity index (DAI) including weight loss, the presence of blood in the stools and the texture of the stools. The clinical scores are determined as follows: for the texture of the stools a score of 0 (hard stools) to 4 (diarrhoea), for the presence of blood in the stools a score of 0 (absence) to 4 (macroscopic blood), and weight loss a score of 0 (<1%) to 4 (>20%). Each mouse is thus assigned a clinical score with a maximum score of 12.
Then, on D67, the mice are killed by cervical dislocation. The histological sections from colon distal biopsies are scored blind, according to the severity of the inflammation (0: absence, 1: slight, 2: moderate, 3: severe), the extent of the inflammation (0: absence, 1: mucosal, 2: mucosal and sub-mucosal, 3: transmural), crypt damage (0: absence, 1: one-third damaged, 2: ⅔ damaged, 3: only the surface of the epithelium intact, 4: total destruction of the crypts and epithelium). Each mouse is thus assigned a histological score with a maximum score of 10.

For another assay, the target named is T2, IL-6Rα receptor (Homo sapiens, UniProt P08887).
T2 sequence (P08887 20-468): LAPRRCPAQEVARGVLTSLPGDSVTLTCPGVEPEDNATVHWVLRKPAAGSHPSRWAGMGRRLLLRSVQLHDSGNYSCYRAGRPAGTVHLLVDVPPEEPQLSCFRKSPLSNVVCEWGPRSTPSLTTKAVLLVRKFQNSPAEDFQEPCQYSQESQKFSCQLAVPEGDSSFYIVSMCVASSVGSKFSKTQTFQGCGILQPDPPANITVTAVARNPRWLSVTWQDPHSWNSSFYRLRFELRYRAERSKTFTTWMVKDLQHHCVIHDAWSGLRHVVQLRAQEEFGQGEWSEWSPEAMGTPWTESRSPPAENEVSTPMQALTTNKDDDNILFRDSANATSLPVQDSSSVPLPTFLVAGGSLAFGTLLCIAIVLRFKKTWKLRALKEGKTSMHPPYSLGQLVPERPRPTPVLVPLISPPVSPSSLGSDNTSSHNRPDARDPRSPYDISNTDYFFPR
The note with it: adults; cited from earlier work.

Bridges are numbered along the chain shown (N, C = ends). BDB = bisdiazonium-benzidine, coupling agent to KLH; Gluta = glutaraldehyde, coupling agent to KLH

hIL-6, sequence (P05231 30-212): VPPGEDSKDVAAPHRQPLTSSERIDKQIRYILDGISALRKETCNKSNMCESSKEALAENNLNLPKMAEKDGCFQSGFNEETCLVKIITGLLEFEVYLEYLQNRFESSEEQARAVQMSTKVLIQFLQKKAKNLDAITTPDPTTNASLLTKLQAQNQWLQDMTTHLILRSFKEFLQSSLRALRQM

With “Acetyl +T177KCQAQNQWLQDM189C-Y-BDB (Ac-TKCQAQNQWLQDMCY-{BDB}; disulfide 3-14 (inferred)) [hP6, peptide derived from hIL-6 region 177-189]”, the “neutralization of the biological activity of human IL-6” value with hIL-6 was “neutralize the biological activity of the human IL-6 in a dose-dependent manner”.
Turning to “Acetyl+CN154QEVKDLHKIVLPTP168C-Y-BDB [mP5]”, the “neutralization of the biological activity of murine IL-6” value with murine IL-6 is “do not neutralize the activity of murine IL-6”.
On to Acetyl+D176KCESQKEWLRTK188C-Y-BDB [mP6], for which, in the assay with C57BL/6 mice, the histological colitis score entry is listed as “significantly reduced histological score”, the “disease activity index (DAI)” value is “significantly reduced disease activity index” and the “reduction of the length of the colon” value was “significantly less severe reduction of the colon”. Further, the “neutralization of the biological activity of murine IL-6” value in the assay with murine IL-6 is recorded as “neutralize the biological activity of murine IL-6 in a dose-dependent manner”.
The matching figures for “BDB-Y-CE125FMKNNLKDNKKDKAR140C+Amide [mP4]”: “significantly reduced histological score”, “significantly reduced disease activity index”, “significantly less severe reduction of the colon” and “neutralize the biological activity of murine IL-6 in a dose-dependent manner”.
With “BDB-Y-CE127FLQNRFESSEEQAR141C+ Amide ({BDB}-YCEFLQNRFESSEEQARC-NH2; disulfide 2-18 (inferred)) [hP4, peptide derived from hIL-6 region 127-141]”, the “neutralization of the biological activity of human IL-6” value in the assay with hIL-6 is reported as “neutralize the biological activity of the human IL-6 in a dose-dependent manner”.
Take “BDB-Y-E61IVEMRKELCNGNSD75C+Amide ({BDB}-YEIVEMRKELCNGNSDC-NH2; disulfide 11-17 (inferred)) [mP1, peptide derived from mIL-6 region 61-75]”: in the assay on C57BL/6 mice, the histological colitis score result is on record as “significantly reduced histological score”, the “disease activity index (DAI)” value is “significantly reduced disease activity index” and the “reduction of the length of the colon” value was “significantly less severe reduction of the colon”. Moreover, the “neutralization of the biological activity of murine IL-6” value with murine IL-6 was “neutralize the biological activity of murine IL-6 in a dose-dependent manner”.
In the case of “BDB-Y-G63ISALRKETCNKSNMC78+Amide ({BDB}-YGISALRKETCNKSNMC-NH2; disulfide 11-17 (inferred)) [hP1, peptide derived from hIL-6 region 63-78]”, the “neutralization of the biological activity of human IL-6” value with hIL-6 is reported as “neutralize the biological activity of the human IL-6 in a dose-dependent manner”.
In the case of “Gluta-C99YQTGYNQEIC109+Amide (Gluta-CYQTGYNQEIC-NH2; disulfide 1-11 (inferred)) [mP3, peptide derived from mIL-6 region 99-109]”, in the assay with C57BL/6 mice, the histological colitis score result is given as “significantly reduced histological score”, the “disease activity index (DAI)” value is “significantly reduced disease activity index” and the “reduction of the length of the colon” value was “significantly less severe reduction of the colon”. Besides, the “neutralization of the biological activity of murine IL-6” value in the assay with murine IL-6 is on record as “neutralize the biological activity of murine IL-6 in a dose-dependent manner”.
“Gluta-C101FQSGFNEETC111 +Amide (Gluta-CFQSGFNEETC-NH2; disulfide 1-11 (inferred)) [hP3, peptide derived from hIL-6 region 101-111]”: the “neutralization of the biological activity of human IL-6” value with hIL-6 was “neutralize the biological activity of the human IL-6 in a dose-dependent manner”.
Regarding “Tocilizumab: humanized monoclonal antibody directed against the IL-6Rα receptor”, the “clinical effectiveness in rheumatoid arthritis” value in the assay with IL-6Rα receptor is recorded as “clinically effective”.
